Values joined by “and” are separate entries in the source; they are usually repeats but may differ in a detail not shown here. Identical values can stand only once. Like-named read-outs stand apart in the source and are kept apart here.
Key:
HRV 16 = assay: Antiviral assay, XTT method, HRV 16; format: cell-based
Apopain (caspase-3) = biological target: T1, Apopain (caspase-3) (Homo sapiens, UniProt P42574); assay: Apopain (Caspase-3) Regulation Assay (FluorAce Apopain Assay Kit); format: biochemical; details: Apopain modulation: Inhibitor or Activator
T1 construct: purchased Bio-rad FluorAce Apopain Assay Kit (booklet 4100119)
T1 sequence (P42574 29-175 limits assumed): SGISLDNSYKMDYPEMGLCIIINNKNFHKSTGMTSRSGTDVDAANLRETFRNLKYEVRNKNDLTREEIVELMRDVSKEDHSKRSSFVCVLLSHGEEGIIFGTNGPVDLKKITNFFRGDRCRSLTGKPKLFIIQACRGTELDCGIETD
T1 sequence (P42574 176-277 limits assumed): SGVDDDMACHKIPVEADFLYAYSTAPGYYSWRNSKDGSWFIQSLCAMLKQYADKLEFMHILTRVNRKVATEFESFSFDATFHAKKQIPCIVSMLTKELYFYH
Description: VI: Apopain (Caspase-3) Regulation Assay
The FluorAce™ Apopain Assay Kit (Bio-rad) was employed in multiwell format. Compounds assayed were diluted 5-fold in distilled water (from stock solutions in ethanol or DMSO) and centrifuged (5′, 14K rpm). 10 μL of the supernatant was further diluted in wells containing 100 μL distilled water and 40 μL 6×Buffer (41.7 mM PIPES, pH 7.4, 8.3 mM EDTA, 0.42% CHAPS, 20.8 mM DTT). This process was carried out twice to yield duplicate wells for each compound. Control wells were prepared by addition of EtOH and DMSO (5-fold diluted in distilled water) into wells containing 6×Buffer and distilled water (40 μL and 100 μL, respectively), to form 8 wells with each solvent. Enzyme (stock solution 10-fold diluted in distilled water, see Bio-rad booklet 4100119) was added to one set of compound-containing cells and to 8 control wells (4 with ethanol and 4 with DMSO). The plate was preincubated for ˜80′ at 27°-28° C. Substrate (Z-DEVD-AFC, 490 μM, 40 μL) was then added to all wells. The plate was left at room temperature and fluorescence (360/40↑530/20↓) was measured at several time points (FL500 fluorimetric reader, Bio-tek instruments). Fluorescence at enzyme-containing wells was background-subtracted at each time point and initial rates were determined by linear regression (typically R^2>0.97). Percentage inhibition and activation was determined by relating the slope with compound to the control slope (with appropriate solvent). IC50 values are extrapolated.

HRV 14 = assay: Antiviral assay, XTT method, HRV 14; format: cell-based
HRV 1B = assay: Antiviral assay, XTT method, HRV 1B; format: cell-based
[1] = Cytotoxicity by XTT assay (treated, mock-infected cells); details: human, H1-HeLa cells (ATCC), mock-infected
Hl-Hela cells [2] = assay: as above; details: read-out: TC50; Format 1; concentration that retards cell growth by 50%, mock-infected Hl-Hela cells
Hl-Hela cells [3] = tested on: Hl-Hela cells
HRV 1A = assay: Antiviral assay, XTT method, HRV 1A; format: cell-based
[4] = tested on: elastase present in erythrocytes; details: background, in words; cited from earlier work
3C protease = details: background, in words; cited from earlier work
[5] = HRV 14, Format 1, restores 50% of viral-caused decrease in cell viability

Activity (Apopain (caspase-3))	SMILES	IC50 (HRV 16; HRV 16, Format 2) [µM]	IC50 (HRV 14; HRV 14, Format 2)	IC50 (HRV 14; [5]) [µM]	CC50 (Hl-Hela cells [2]) [µM]	further results
	CC(=O)c1c(O)cccc1OCC(N)=O (hydrate or solvate) [SA#121, 2-(2-acetyl-3-hydroxyphenoxy)-acetamide]					melting point: 151 to 152 °C
Activator	CCCCCC(=O)c1c(O)c(Cl)c(OC)c(Cl)c1O [SA#15]	1.4 ± 0.8	5 ± 1 µM			
	O=C(CCc1ccccc1)c1cc(Cl)ccc1O [SA#43]					IC50 (HRV 1B): 40 ± 10 µM; IC50 (HRV 16): 340 ± 70 µM; IC50 (HRV 14): 30 ± 20 µM
Inhibitor	CC(=O)c1cccc(C#N)c1O [SA#51]					
Inhibitor	CC(=O)c1c(O)c(Cl)cc(Cl)c1O [SA#109]		590 ± 320 µM			
	CCCCCC(=O)c1cc(Cl)c(O)c(Cl)c1O [SA#116]	61 ± 37	50 ± 7 µM	13	24 ± 6	IC50 (HRV 16; HRV 16, Format 1): 21 µM
	O=C(NCc1ccccc1)c1cc([N+](=O)[O-])cc([N+](=O)[O-])c1O [SA#120]	30 ± 8	40 ± 33 µM	30		CC50 (Hl-Hela cells [3]): 271 ± 22 µM
	CC(=O)c1c(O)cccc1OCC(N)=O [SA#121, 2-(2-acetyl-3-hydroxyphenoxy)-acetamide]	420 ± 140	120 ± 50 µM	189		CC50 [1]: 425 ± 8 µM; IC50 (HRV 1A; Format 1): 198 µM
	O=C(NCCc1ccccc1)c1cc([N+](=O)[O-])cc([N+](=O)[O-])c1O [SA#127]	15 ± 4	16 ± 4 µM	23		IC50 (HRV 1A; Format 2): 13 ± 3 µM; IC50 (HRV 1B; HRV 1B, Format 2): 11 ± 1 µM; CC50 (Hl-Hela cells [3]): 187 ± 18 µM
	CCCCCCCCNC(=O)c1cc([N+](=O)[O-])cc([N+](=O)[O-])c1O [SA#128]	4 ± 3	31 ± 6 µM	152		CC50 (Hl-Hela cells [3]): 429 ± 42 µM
	CCOC(=O)c1c(O)cc(O)c(C(C)=O)c1O [SA#132]			17	29 ± 5	IC50 (HRV 1A; Format 1): 13 µM; IC50 (HRV 1B; HRV 1B, Format 1): 24 µM
	CCCCCC(=O)c1c(OC)cc(O)c(Cl)c1O [SA#134]	13 ± 6	122 ± 14 µM	63	48 ± 6	IC50 (HRV 16; HRV 16, Format 1): 12 µM
	C[C@H]1CC2=C(C(=O)c3c(O)cc(O)cc3C2=O)[C@H](O)O1 [Thysanone]					inhibition of elastase [4]: efficient inhibitor; inhibition of the 3C protease (3C protease): inhibitor of the 3C protease
	COc1ccc(C(=O)c2ccccc2O)c(O)c1 [compound 1]	165 ± 134	23 ± 20 µM	16	50 ± 10	
	CC(=O)c1ccccc1O [compound 6]		210 ± 170 µM			
	CC(=O)c1ccc(O)cc1O [compound 7]	810 ± 180				
Inhibitor	CC(=O)c1cc(O)ccc1O [compound 8]	35 ± 7	230 ± 170 µM			IC50 (HRV 1A; Format 2): 141 ± 25 µM; IC50 (HRV 1B; HRV 1B, Format 2): 33 ± 3 µM
Activator	CC(=O)c1c(O)cccc1O [compound 9]	200 ± 110	110 ± 14 µM			
	CC(=O)c1cc(Cl)ccc1O [compound 12]	590 ± 300	150 µM and 290 µM		> 2500	IC50 (HRV 1B; HRV 1B, Format 2): 305 ± 55 µM; IC50 (HRV 16; HRV 16, Format 1): 137 µM
	COc1cc(O)c(C(C)=O)c(OC)c1 [compound 14]				780 ± 206	IC50 (HRV 16; HRV 16, Format 1): 225 µM
	CC(=O)c1cc(Br)ccc1O [compound 28]	159 ± 44	91 ± 62 µM	6.2	1230 ± 610	
	CC(=O)c1cc(Cl)cc(Cl)c1O [compound 29]	6 ± 2	6 ± 2 µM	4.8	29 ± 8	IC50 (HRV 1A; Format 2): 19 ± 8 µM; IC50 (HRV 1B; HRV 1B, Format 2): 8 ± 5 µM

SMILES	Activity (Apopain (caspase-3))	IC50 (HRV 16; HRV 16, Format 2) [µM]	IC50 (HRV 14; HRV 14, Format 2)	IC50 (HRV 14; [5]) [µM]	CC50 (Hl-Hela cells [2]) [µM]	further results
CC(=O)c1c(O)cc(O)cc1O [SA#110]	Inhibitor			192		CC50 [1]: 548 ± 27 µM; IC50 (HRV 16; HRV 16, Format 1): 425 µM
CC(=O)c1cc(F)ccc1O [compound 27]	Inhibitor	47 ± 8		444		CC50 [1]: > 1250 µM
CC(=O)c1cc(C)cc([N+](=O)[O-])c1O [compound 30]	Inhibitor	29 ± 24	31 ± 12 µM	55		CC50 [1]: 67 ± 8 µM

From US6828350B1, “Modulators of cysteine protease” (Exegenics Inc., priority 1997, dated 2004)
